One block for each compound: values may come before it. Active and inactive are the calls of the source.
Tests used:
[1] = target: Intestinal-type alkaline phosphatase (Mus musculus, UniProt P24822); assay: PubChem AID 488785; assay type: functional
[2] = target: DNA dC->dU-editing enzyme APOBEC-3G (Homo sapiens, UniProt Q9HC16); assay: Dose Response confirmation of small molecule APOBEC3G DNA Deaminase Inhibitors via a fluorescence-based single-stranded DNA deaminase assay. [Related pubchem assays (depositor defined):AID493012, AID493028]; assay type: functional
[3] = target: T1, Alkaline phosphatase, tissue-nonspecific isozyme (Homo sapiens, UniProt P05186); assay: TNAP enzyme inhibition by screening hits, dose response, selectivity assay for mouse IAP inhibitor project, biochemical, human TNAP, uHTS hits (AID 488906); assay type: functional
T1 sequence (P05186 whole entry): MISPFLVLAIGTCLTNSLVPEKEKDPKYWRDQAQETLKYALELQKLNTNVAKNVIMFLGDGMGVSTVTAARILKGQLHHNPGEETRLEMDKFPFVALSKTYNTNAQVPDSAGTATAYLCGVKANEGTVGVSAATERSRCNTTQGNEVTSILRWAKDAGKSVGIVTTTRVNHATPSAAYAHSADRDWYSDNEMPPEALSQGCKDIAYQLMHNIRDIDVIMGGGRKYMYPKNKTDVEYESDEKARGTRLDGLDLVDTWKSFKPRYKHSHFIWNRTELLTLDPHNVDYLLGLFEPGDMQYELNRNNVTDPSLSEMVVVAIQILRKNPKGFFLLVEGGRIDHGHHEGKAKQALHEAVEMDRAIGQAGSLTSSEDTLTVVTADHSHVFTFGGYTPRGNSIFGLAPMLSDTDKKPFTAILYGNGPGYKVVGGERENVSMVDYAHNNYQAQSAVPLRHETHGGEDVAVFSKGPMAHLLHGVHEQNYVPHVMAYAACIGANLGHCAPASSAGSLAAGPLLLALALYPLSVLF

Vero = assay: viability of Vero cells under compound – cytotoxicity control for flavivirus capping enzyme inhibitors (AID 588742); assay type: functional; settings: Chlorocebus sabaeus
[4] = target: T2, Dual specificity protein phosphatase 6 (Rattus norvegicus, UniProt Q64346)
T2 sequence (Q64346 whole entry): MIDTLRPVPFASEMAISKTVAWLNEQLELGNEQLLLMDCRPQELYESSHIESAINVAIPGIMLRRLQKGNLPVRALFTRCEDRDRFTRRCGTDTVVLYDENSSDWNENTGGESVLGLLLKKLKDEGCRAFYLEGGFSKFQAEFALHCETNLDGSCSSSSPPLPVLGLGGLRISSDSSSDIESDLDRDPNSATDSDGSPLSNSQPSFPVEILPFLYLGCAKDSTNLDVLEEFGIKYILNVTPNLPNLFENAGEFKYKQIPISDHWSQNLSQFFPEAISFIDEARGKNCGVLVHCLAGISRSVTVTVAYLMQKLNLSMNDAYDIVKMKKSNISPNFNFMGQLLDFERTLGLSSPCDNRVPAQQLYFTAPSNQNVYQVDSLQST

Troponin, cardiac muscle = Troponin, cardiac muscle (Homo sapiens, UniProt P19429+P45379+P63316); assay: compounds desensitizing RTF to calcium – biochemical, fluorescence, cardiac regulated thin filaments, triplicate IC50, dose response (AID 504742); assay type: protein-complex assay
[5] = target: T2, Dual specificity protein phosphatase 6; assay type: functional
[6] = target: 5'-AMP-activated protein kinase catalytic subunit alpha-1 (Homo sapiens, UniProt Q13131); assay type: functional
[7] = target: Serine/threonine-protein kinase PAK 4 (Homo sapiens, UniProt O96013); assay type: functional;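 further: value obtained within a kinome profiling panel in which PAK4 was one of the panel members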
LIM domain kinase 1 = LIM domain kinase 1 (Homo sapiens, UniProt P53667); assay: Navigating the Kinome. Panel member name: LIMK1; assay type: functional
[8] = target: Dual specificity mitogen-activated protein kinase kinase 2 (Homo sapiens, UniProt P36507); assay: Navigating the Kinome. Panel member name: MAP2K2; assay type: functional
BJ = assay: BJ-TERT-LT-ST fibroblast viability loss – cell-based, RAS-independent, luminescence, dose response (AID 1935); assay type: functional; settings: Homo sapiens;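 further: BJ fibroblasts immortalized with TERT plus LT and ST oncogenes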
[9] = target: C-C chemokine receptor type 6 (Homo sapiens, UniProt P51684); assay: antagonism of CCR6 beta-arrestin recruitment – cell-based, luminescent beta-arrestin readout, dose response (AID 504728); assay type: functional
Albumin = Albumin (Bos taurus, UniProt P02769); assay: Counterscreen for inhibitors of T-cell receptor (TCR)-CD3 interaction: Fluorescence-based biochemical high throughput dose response assay to identify inhibitors of T-cell receptor (TCR)-CD3 interaction using a TAMRA-labeled BSA probe.; assay type: functional
[10] = target: MAP/microtubule affinity-regulating kinase 4 (Homo sapiens, UniProt Q96L34); assay: Navigating the Kinome. Panel member name: MARK4; assay type: functional
[11] = target: Casein kinase II subunit alpha (Homo sapiens, UniProt P68400); assay type: functional
Insulin receptor = Insulin receptor (Homo sapiens, UniProt P06213); assay type: functional;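 further: insulin receptor kinase tested as one member of a kinome-wide kinase panel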
[12] = target: Mitogen-activated protein kinase 13 (Homo sapiens, UniProt O15264); assay type: functional
[13] = target: Serine/threonine-protein kinase pim-3 (Homo sapiens, UniProt Q86V86); assay type: functional;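 further: value obtained as one member of a broad kinase panel profiling effort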
[14] = target: Serine/threonine-protein kinase SIK2 (Homo sapiens, UniProt Q9H0K1); assay: Navigating the Kinome. Panel member name: SIK2; assay type: functional
[15] = target: Calcium/calmodulin-dependent protein kinase type II subunit beta (Homo sapiens, UniProt Q13554); assay type: functional
[16] = target: 3-phosphoinositide-dependent protein kinase 1 (Homo sapiens, UniProt O15530); assay type: functional;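 further: value comes from the Navigating the Kinome panel, PDPK1 member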
[17] = target: Inhibitor of nuclear factor kappa-B kinase subunit beta (Homo sapiens, UniProt O14920); assay type: functional
Sequence of Inhibitor of nuclear factor kappa-B kinase subunit beta (O14920 whole entry): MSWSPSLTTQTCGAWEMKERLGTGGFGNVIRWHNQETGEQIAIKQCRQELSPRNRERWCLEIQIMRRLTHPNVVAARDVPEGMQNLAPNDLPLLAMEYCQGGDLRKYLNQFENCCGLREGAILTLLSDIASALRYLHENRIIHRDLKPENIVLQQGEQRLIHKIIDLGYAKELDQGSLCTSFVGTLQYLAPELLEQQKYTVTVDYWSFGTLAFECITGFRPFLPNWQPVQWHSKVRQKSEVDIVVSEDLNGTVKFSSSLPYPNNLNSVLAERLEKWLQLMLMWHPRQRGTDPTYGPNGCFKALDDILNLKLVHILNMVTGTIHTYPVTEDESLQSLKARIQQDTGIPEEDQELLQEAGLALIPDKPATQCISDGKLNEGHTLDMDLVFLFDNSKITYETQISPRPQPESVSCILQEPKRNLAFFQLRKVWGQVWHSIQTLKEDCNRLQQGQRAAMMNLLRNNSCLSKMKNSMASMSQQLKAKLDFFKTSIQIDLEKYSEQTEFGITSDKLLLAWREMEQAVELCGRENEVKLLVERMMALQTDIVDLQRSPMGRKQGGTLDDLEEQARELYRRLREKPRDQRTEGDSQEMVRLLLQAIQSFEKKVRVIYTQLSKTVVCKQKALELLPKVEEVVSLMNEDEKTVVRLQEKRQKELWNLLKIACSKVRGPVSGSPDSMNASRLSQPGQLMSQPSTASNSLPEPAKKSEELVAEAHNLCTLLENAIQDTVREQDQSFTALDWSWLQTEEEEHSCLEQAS

Sequence of 5'-AMP-activated protein kinase catalytic subunit alpha-1 (Q13131 whole entry): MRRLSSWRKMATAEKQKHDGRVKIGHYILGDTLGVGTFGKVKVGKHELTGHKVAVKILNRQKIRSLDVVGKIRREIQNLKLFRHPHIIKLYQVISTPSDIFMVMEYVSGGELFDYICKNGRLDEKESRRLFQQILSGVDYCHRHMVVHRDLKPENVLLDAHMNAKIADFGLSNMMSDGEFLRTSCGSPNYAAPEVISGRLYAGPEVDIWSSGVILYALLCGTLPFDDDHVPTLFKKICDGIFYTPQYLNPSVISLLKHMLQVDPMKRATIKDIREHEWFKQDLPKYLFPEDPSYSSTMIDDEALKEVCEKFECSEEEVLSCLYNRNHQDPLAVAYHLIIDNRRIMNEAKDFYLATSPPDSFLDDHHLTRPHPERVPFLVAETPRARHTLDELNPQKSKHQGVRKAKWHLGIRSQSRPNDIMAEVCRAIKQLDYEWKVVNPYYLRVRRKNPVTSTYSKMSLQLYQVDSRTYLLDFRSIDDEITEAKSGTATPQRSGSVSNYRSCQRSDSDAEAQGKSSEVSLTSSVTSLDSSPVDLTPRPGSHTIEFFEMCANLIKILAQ
Sequence of Serine/threonine-protein kinase SIK2 (Q9H0K1 whole entry): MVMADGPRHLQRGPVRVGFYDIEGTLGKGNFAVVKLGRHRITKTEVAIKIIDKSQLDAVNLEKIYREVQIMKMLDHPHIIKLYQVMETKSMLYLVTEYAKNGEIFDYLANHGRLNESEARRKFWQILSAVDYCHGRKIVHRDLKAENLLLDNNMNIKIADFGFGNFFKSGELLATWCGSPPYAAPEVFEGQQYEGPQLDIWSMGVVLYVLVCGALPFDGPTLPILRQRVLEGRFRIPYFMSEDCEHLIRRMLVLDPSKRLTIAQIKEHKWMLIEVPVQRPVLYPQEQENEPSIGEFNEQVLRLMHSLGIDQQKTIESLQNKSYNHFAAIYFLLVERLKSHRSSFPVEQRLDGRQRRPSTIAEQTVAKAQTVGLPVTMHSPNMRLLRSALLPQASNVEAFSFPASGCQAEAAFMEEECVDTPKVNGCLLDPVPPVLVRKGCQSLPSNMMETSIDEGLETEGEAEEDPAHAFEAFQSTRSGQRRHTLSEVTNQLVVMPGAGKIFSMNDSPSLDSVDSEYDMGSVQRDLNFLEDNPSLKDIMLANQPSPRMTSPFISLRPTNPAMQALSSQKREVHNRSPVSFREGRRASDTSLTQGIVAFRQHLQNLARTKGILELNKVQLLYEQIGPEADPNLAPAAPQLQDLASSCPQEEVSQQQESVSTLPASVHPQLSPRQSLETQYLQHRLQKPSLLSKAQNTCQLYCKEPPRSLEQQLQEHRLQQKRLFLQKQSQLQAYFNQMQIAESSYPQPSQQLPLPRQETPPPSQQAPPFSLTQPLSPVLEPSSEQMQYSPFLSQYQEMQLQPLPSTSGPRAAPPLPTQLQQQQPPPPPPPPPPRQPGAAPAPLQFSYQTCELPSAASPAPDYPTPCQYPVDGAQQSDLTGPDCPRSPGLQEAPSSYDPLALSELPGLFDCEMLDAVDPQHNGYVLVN
Sequence of Dual specificity mitogen-activated protein kinase kinase 2 (P36507 whole entry): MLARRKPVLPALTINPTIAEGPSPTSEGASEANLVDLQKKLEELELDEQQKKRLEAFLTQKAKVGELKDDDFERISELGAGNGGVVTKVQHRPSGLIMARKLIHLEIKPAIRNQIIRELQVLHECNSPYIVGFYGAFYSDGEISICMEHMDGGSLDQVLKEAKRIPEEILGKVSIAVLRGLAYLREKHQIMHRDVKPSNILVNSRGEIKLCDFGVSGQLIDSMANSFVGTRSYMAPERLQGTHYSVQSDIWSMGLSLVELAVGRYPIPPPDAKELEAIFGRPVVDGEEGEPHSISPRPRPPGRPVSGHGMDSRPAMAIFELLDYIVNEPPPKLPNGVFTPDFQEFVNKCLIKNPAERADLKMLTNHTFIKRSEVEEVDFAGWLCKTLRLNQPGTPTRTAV
Sequence of DNA dC->dU-editing enzyme APOBEC-3G (Q9HC16 whole entry): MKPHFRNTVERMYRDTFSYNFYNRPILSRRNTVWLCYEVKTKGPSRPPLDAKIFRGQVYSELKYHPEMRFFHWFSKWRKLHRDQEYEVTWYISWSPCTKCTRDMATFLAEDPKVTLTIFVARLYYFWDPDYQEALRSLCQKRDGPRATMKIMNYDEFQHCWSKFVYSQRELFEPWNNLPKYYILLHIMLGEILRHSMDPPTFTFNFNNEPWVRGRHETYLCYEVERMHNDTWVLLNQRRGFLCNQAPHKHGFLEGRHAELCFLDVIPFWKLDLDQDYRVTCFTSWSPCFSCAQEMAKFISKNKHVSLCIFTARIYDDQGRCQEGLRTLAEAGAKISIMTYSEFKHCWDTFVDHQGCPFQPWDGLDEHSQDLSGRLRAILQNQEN
Sequence of LIM domain kinase 1 (P53667 whole entry, the tested form may be a part): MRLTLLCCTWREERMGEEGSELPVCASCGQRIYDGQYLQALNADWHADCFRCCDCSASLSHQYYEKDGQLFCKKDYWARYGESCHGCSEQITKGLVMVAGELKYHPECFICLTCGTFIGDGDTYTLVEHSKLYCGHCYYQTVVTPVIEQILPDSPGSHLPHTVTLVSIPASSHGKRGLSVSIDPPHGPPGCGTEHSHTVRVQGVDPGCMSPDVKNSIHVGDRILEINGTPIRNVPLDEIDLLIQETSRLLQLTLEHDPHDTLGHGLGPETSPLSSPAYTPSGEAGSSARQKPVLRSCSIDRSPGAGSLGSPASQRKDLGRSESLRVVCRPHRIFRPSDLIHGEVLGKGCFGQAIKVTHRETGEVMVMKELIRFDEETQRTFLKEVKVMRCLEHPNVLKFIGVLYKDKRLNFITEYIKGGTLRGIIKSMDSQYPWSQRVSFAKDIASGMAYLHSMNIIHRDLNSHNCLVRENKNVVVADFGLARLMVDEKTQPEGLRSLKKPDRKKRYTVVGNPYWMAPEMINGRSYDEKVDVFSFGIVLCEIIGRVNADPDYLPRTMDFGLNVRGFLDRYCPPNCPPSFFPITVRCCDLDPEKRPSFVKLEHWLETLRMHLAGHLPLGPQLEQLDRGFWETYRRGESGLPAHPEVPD
Sequence of Mitogen-activated protein kinase 13 (O15264 whole entry): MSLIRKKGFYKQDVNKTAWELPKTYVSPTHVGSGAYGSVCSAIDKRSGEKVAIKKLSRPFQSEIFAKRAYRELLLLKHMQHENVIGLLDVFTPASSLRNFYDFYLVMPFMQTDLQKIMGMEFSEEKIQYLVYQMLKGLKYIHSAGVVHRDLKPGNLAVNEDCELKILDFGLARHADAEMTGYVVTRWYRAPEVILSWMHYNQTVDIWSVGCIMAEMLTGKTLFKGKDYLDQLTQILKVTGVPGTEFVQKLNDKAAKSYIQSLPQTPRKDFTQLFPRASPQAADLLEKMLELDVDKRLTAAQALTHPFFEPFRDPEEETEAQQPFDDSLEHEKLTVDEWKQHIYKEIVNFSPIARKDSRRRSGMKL
Sequence of C-C chemokine receptor type 6 (P51684 whole entry): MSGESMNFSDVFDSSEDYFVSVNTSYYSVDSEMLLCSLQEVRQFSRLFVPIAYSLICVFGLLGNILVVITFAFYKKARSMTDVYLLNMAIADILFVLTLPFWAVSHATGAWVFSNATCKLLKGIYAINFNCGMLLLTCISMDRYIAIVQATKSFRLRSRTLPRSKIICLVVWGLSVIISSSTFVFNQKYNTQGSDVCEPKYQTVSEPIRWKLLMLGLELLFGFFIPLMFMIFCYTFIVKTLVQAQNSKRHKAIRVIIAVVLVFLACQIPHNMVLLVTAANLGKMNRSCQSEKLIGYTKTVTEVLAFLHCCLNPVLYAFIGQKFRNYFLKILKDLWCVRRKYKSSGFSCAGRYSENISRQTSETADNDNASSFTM

SMILES: O=C1/C(=C\c2cccc(O)c2O)SC(=S)N1Cc1ccccc1
IC50 [1]: 3.23 µM (active)
IC50 [2]: 47.2 µM (active)
IC50 [3]: > 100 µM (inactive)
CC50 (Vero): 16.1 µM (active)

SMILES: COc1cccc2c1NC(C(=O)O)C1CC=CC21 (stereo not drawn)
IC50 [4]: 14 µM (active)
IC50 (Troponin, cardiac muscle): 27.7 µM (inactive)
IC50 [5]: 13.1 µM (active)

Ki [6]: 0.794 µM (active)
Ki [7]: > 5.01 µM (inactive)
Ki (LIM domain kinase 1): 0.0316 µM (active)
Ki [8]: 0.398 µM (active)
SMILES: COc1c(-c2nc3ccccc3[nH]2)c(O)cc2oc(C)cc(=O)c12

SMILES: CCc1ccc(S(=O)(=O)/N=C2\C=C(Nc3ccc(O)cc3)C(=O)c3ccccc32)cc1
EC50 (BJ): 2.83 µM (active)
IC50 [9]: > 66.6 µM (inactive)

SMILES: Cc1cc([N+](=O)[O-])cc(/C=N\NC(=O)C2COc3ccccc3O2)c1O (stereo not drawn)
IC50 (Albumin): > 94.2 µM (inactive)

Ki [10]: > 5.01 µM (inactive)
Ki [11]: 5.01 µM (active)
Ki (Insulin receptor): 0.794 µM (active)
Ki [12]: 2.51 µM (active)
Ki [13]: > 7.94 µM (inactive)
Ki [14]: > 3.98 µM (inactive)
Ki [15]: 3.98 µM (active)
Ki [16]: > 3.98 µM (inactive)
Ki [17]: > 3.16 µM (inactive)
SMILES: Cc1ccc(F)c(NC(=O)Nc2ccc(-c3cccc4[nH]nc(N)c34)cc2)c1 [LINIFANIB]

From ChEMBL document CHEMBL1201862, “PubChem BioAssay data set” (2004)
